Calls of active or inactive are those of the source. The calls are words filed in the database; no cut-off is given here.
test system: PMNL; assay: Induction of 15-HETE formation in human PMNL cells by RP-HPLC analysis; format: functional, cell-based

| Compound | Activity |
| --- | --- |
| C/C(=C\CC/C(C)=C/CC[C@]1(C)CCc2c(C)c(O)cc(C)c2O1)CC/C=C(\C)C(=O)NCC1CCCCC1 | Active |
| COc1ccc(CNC(=O)/C(C)=C/CC/C(C)=C/CC/C(C)=C/CC[C@]2(C)CCc3c(C)c(O)c(C)c(C)c3O2)cc1 | Active |
| C/C(=C\CC/C(C)=C/CC[C@]1(C)CCc2c(C)c(O)c(C)c(C)c2O1)CC/C=C(\C)C(=O)NCC1CCCCC1 | Active |
| C/C(=C\CC/C(C)=C/CC[C@]1(C)CCc2c(C)c(O)c(C)c(C)c2O1)CC/C=C(\C)C(=O)NCc1cccnc1 | Active |

From ChEMBL document CHEMBL4706510, “Structure-based design, semi-synthesis and anti-inflammatory activity of tocotrienolic amides as 5-lipoxygenase inhibitors” (Eur J Med Chem, 2020)
